# Measured values published in ChEMBL document CHEMBL1201862, “PubChem BioAssay data set” (2004).
# Counter-ions that a name gives are not always drawn. Calls of active or inactive are those of the source.
# Legend:
# [1] = inhibition of fibronectin matrix deposition – AH1F cells, Alexa488-fibronectin fluorescence, cherry-pick, set 2, dose response (AID 1117283); type: functional, cell-based
# [2] = IC50 of insulin release inhibition, rat insulinoma INS-1E line, 5 mM glucose, cell-based (AID 1117331); type: functional
# [3] = biological target: NAD-dependent protein deacylase sirtuin-5, mitochondrial (Homo sapiens, UniProt Q9NXA8); assay: sirtuin-5 deacylation blockers, concentration series – biochemical, fluorescence imaging, cherry-pick, set 5, dose response (AID 720591);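 note: desuccinylation of succinyl peptide AMC substrate read as fluorescence after trypsin release; potency of inhibitors that lower fluorescence and may act on trypsin instead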
# Sequence of NAD-dependent protein deacylase sirtuin-5, mitochondrial (Q9NXA8 whole entry): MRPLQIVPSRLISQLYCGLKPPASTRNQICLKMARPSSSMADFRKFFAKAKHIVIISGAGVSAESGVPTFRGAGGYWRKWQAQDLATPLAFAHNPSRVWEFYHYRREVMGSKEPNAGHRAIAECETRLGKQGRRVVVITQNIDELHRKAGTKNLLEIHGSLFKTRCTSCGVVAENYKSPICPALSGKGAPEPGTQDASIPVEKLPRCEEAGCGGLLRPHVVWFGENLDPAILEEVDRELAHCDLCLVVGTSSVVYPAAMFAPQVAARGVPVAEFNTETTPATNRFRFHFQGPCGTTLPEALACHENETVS
# [4] = biological target: Vasopressin V1b receptor (Homo sapiens, UniProt P47901); assay: Late-stage results from the probe development effort to identify antagonists of arginine vasopressin receptor 1a (AVPR1a): fluorescence-based cell-based dose response AVPR1b inhibition counterscreen assay.; type: functional
# Sequence of Vasopressin V1b receptor (P47901 whole entry): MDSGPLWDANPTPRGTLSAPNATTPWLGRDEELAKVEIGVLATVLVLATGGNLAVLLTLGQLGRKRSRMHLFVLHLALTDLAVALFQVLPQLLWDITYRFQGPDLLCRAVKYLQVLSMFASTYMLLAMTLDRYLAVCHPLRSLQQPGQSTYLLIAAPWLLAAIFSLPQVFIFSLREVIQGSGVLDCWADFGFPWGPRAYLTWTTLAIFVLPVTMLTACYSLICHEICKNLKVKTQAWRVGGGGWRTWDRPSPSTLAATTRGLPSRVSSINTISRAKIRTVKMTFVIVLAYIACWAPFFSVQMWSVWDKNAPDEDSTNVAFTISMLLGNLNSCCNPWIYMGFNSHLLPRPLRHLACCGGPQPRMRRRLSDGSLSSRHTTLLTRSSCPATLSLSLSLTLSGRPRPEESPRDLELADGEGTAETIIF
# [5] = Late-stage results from the probe development effort to identify antagonists of arginine vasopressin receptor 1a (AVPR1a): fluorescence-based cell-based dose response AVPR1a inhibition assay.; type: functional
# [6] = Late-stage results from the probe development effort to identify antagonists of arginine vasopressin receptor 1a (AVPR1a): fluorescence-based cell-based dose response OXTR inhibition counterscreen assay.; type: functional
# [7] = biological target: Vasopressin V2 receptor (Homo sapiens, UniProt P30518); assay: Late-stage results from the probe development effort to identify antagonists of arginine vasopressin receptor 1a (AVPR1a): fluorescence-based cell-based dose response AVPR2 inhibition counterscreen assay.; type: functional
# Sequence of Vasopressin V2 receptor (P30518 whole entry): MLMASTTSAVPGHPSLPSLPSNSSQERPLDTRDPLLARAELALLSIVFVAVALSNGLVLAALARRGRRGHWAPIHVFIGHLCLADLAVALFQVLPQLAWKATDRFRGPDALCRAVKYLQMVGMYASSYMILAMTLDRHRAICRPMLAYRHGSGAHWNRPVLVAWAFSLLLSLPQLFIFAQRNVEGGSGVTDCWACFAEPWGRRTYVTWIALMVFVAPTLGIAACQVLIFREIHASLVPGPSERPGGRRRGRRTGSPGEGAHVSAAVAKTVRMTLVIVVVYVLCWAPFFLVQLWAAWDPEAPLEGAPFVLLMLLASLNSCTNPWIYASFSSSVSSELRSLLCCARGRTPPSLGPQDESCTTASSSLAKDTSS
# [8] = glucagon-like peptide-1 release potency in STC-1, concentration-response, half-maximal inhibitory concentration in the STC-1 line (AID 1117345); type: functional, cell-based
# [9] = Potency on glucagon-like peptide 1 release, dose-response in NCI-H716 cell line, half maximal inhibitory concentration (AID 1117344); type: functional, cell-based
# [10] = biological target: G-protein coupled receptor 183 (Homo sapiens, UniProt P32249); assay: SAR confirmation of small molecule antagonists of the EBI2 receptor via a luminescent beta-arrestin assa.; type: functional
# Sequence of G-protein coupled receptor 183 (P32249 whole entry): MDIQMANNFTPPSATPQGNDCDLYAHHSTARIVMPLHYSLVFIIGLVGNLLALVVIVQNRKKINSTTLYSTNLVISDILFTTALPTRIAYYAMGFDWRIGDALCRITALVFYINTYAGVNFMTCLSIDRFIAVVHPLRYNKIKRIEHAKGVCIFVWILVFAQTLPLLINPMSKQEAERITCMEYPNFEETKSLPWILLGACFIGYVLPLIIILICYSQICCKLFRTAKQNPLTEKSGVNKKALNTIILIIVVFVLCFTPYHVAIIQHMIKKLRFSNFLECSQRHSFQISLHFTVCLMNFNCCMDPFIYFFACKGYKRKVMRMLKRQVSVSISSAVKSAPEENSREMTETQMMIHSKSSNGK
# [11] = NIH3T3 cell viability loss – ATP luminescence, mouse fibroblasts, counter-screen, dose response (AID 2010); type: functional, cell-based;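 note: cells exposed to compound for about 90 hours before reading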
# [12] = biological target: T1, Protein RecA (Mycobacterium tuberculosis, UniProt P9WHJ3); assay: Fluorescence Cell-Free Homogeneous Dose Retest to Identify Inhibitors of RecA-Intein Splicing Activity. [Related pubchem assays (depositor defined):AID2097, AID2223, AID489010, AID492950]; type: functional
# T1 sequence (P9WHJ3 whole entry): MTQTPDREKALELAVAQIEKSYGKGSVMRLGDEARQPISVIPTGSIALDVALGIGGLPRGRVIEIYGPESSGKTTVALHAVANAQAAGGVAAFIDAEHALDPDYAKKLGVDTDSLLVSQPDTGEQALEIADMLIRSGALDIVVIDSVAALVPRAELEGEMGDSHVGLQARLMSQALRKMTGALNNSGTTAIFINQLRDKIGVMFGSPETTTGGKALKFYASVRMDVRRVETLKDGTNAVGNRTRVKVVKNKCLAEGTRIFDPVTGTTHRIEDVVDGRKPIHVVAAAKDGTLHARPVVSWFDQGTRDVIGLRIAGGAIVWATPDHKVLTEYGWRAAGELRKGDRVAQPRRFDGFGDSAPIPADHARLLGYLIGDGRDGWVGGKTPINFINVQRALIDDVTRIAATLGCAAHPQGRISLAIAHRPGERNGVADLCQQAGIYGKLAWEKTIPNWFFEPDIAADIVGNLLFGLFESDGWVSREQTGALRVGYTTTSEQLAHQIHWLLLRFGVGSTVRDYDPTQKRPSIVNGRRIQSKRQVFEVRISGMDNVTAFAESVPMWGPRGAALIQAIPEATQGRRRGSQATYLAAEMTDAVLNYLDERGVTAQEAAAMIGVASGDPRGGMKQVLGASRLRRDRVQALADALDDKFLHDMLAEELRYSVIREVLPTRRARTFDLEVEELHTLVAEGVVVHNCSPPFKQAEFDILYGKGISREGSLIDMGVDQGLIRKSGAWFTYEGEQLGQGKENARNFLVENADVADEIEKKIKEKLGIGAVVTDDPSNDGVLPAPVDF
# [13] = biological target: T2, Apoptotic protease-activating factor 1 (Homo sapiens, UniProt O14727); type: functional
# T2 sequence (O14727 whole entry): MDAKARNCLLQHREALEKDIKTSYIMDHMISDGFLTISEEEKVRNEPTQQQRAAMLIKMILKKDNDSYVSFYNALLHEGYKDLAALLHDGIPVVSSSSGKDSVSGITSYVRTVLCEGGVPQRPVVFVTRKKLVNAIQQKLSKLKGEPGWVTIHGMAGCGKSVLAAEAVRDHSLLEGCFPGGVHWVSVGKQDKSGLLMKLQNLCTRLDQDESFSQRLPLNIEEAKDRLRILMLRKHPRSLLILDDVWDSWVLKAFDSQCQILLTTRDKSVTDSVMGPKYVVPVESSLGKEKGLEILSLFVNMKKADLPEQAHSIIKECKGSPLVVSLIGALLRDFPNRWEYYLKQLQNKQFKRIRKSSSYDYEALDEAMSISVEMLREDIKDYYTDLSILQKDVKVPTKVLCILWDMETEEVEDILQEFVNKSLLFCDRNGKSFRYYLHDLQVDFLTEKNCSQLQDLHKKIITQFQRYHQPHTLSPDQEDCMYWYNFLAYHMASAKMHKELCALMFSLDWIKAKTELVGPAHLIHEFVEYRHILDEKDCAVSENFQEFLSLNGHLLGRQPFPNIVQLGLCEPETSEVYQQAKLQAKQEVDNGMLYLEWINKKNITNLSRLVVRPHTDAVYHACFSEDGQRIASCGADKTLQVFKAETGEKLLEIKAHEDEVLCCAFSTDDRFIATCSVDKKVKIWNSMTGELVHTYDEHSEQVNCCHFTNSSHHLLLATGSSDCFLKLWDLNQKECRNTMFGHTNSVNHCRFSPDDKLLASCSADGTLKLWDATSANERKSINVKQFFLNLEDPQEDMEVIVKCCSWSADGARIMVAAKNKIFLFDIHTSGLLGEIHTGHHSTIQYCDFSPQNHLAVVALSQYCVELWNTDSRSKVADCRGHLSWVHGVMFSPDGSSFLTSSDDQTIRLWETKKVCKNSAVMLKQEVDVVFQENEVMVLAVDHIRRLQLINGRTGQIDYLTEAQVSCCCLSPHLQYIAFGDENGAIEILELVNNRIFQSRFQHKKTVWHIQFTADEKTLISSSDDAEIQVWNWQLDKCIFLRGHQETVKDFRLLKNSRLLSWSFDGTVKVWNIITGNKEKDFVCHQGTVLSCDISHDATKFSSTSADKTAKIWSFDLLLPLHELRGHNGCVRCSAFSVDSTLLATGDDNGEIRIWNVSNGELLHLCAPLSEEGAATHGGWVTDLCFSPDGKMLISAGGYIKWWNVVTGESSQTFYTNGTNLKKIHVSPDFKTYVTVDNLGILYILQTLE
# [14] = test system: Streptococcus; assay: GAS UMAA2166 growth inhibition – luminescence, BacTiterGlo, counter-screen for streptokinase expression inhibitor project, dose response (AID 1915); type: functional, organism-based;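 note: potency for reduction of bacterial viability or growth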
# [15] = biological target: T3, Replicative DNA helicase DnaB (Mycobacterium tuberculosis, UniProt P9WMR3); assay: DnaB intein splicing inhibitors, dose response, biochemical, cell-free fluorescence (AID 449749); type: functional
# T3 sequence (P9WMR3 whole entry): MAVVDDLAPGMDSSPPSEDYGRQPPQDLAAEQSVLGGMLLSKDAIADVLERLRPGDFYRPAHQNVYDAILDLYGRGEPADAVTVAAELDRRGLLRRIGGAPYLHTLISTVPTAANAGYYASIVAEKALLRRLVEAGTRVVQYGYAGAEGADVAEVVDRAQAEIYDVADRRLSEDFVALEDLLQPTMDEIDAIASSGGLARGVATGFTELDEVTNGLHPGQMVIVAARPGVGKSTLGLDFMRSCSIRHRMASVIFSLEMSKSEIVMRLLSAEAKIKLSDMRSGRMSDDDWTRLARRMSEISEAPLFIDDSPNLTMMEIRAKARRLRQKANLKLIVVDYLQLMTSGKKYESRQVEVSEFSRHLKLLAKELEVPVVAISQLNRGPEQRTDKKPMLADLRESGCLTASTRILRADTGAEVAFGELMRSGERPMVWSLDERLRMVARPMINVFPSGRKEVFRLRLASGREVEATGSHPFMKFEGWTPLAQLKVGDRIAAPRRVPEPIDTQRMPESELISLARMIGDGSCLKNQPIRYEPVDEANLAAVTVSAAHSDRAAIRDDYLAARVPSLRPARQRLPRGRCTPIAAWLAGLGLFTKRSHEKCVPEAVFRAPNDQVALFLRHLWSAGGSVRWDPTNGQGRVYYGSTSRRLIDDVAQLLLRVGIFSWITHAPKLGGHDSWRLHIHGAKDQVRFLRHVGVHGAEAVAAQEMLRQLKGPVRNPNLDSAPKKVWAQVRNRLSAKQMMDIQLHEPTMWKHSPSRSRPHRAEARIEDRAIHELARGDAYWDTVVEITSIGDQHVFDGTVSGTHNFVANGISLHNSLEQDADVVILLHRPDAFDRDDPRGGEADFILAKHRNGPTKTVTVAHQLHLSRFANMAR
# [16] = alpha-synuclein stem-loop luciferase translation blockers – H4 neuroglioma cells, luminescence, confirmation (AID 1988); type: functional, cell-based
# [17] = test system: Streptococcus sp. 'group A'; assay: Streptococcus pyogenes SK(-)GAS viability under kanamycin – luminescence, BacTiterGlo, confirmation, counter-screen for streptokinase expression inhibitor project, dose response (AID 1900); type: functional, organism-based
# [18] = Luminescence Cell-Based Dose Response HTS to Identify Inhibitors of 5'UTR Stem-Loop Driven Prion Protein mRNA Translation in H4 Neuroglioblastoma Cells. [Related pubchem assays: 1827 (Project Summary), 1813 (Primary HTS)]; type: functional
# [19] = Trypanosoma cruzi growth suppression in host cells – NIH3T3 host cells, beta-gal luminescence, confirmation (AID 2044); type: functional, cell-based;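 note: intracellular parasites grown in NIH/3T3 mouse fibroblasts as host cells; luminescent beta-galactosidase reporter signal from transgenic T. cruzi replicating inside host cells; inhibitors lower the luminescence signal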
# [20] = IC50 of Artemis nuclease activity blockers – biochemical, fluorescence intensity, dose response (AID 720701); type: functional;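 note: Artemis endonuclease enzyme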
# [21] = luciferase reporter signal suppression in cells – H4 neuroglioma cells, luminescence, dose response (AID 1990); type: functional, cell-based
# [22] = Reduced DLD-1 viability, concentration-response, CellTiter-Glo luminescence (AID 1117352); type: functional
# [23] = cytotoxicity toward HCT116 cells – cell-based, CellTiter-Glo luminescence, IC50, dose response (AID 1117332); type: functional; details: HCT-116
# [24] = cytotoxicity toward HT-29 cells – cell-based, CellTiter-Glo luminescence, IC50, dose response (AID 1117330); type: functional
# [25] = RKO cell viability reduction, dose response, CellTiter-Glo luminescence (AID 1117322); type: functional
# [26] = cytotoxicity toward Colo320 cells – cell-based, CellTiter-Glo luminescence, IC50, dose response (AID 1117334); type: functional; details: COLO 320
# [27] = HCT116 cell viability decrease, GSK3B pretreatment – CellTiter-Glo, IC50, dose response (AID 1117339); type: functional; details: HCT-116
# [28] = SNU-C1 cell viability reduction, dose response, CellTiter-Glo luminescence (AID 1117323); type: functional, cell-based
# [29] = CellTiter-Glo luminescence survival assay, SW480 colon tumor line, concentration-response curve, half-maximal inhibitory concentration (AID 1117338); type: functional
smiles,measurement,setting,value
C[C@@H]1CN([C@H](C)CO)C(=O)c2cc(-c3ccccc3)cnc2O[C@@H]1CN(C)C(=O)c1cccc(F)c1,AC50,[1],> 70 µM (inactive)
CCN(CC)CCOC(=O)C(C)(c1ccccc1)c1ccccc1 [APROFENE],IC50,[2],> 11.1 µM (inactive)
COc1ccc(OCC(=O)Nc2ccc(C(=O)Nc3ccccc3C(=O)O)cc2)cc1,AC50,[3],> 30 µM (inactive)
C[C@H](O)C#Cc1ccc2c(c1)O[C@H](CN(C)C)[C@@H](C)CN([C@@H](C)CO)S2(=O)=O,AC50,[1],> 70 µM (inactive)
Cc1ccccc1N1CCN(C(=O)N(CC2CC2)c2ccccc2)CC1,IC50,[4],22 µM (inactive)
same,IC50,[5],0.019 µM (active)
same,IC50,[6],4.9 µM (active)
same,IC50,[7],4.89 µM (active)
Cc1cc(O)c2c(O)c3c(O)cccc3cc2c1,IC50,[8],11.3 µM (inactive)
same,IC50,[2],> 33.3 µM (inactive)
same,IC50,[9],> 20 µM (inactive)
CCN(C(=O)N1CCN(c2ccccc2C)CC1)c1ccc(OC)cc1,IC50,[4],8.81 µM (active)
same,IC50,[5],0.062 µM (active)
same,IC50,[6],0.5 µM (active)
same,IC50,[7],6 µM (active)
O=C(c1ccc(Br)cc1)N1CCN(Cc2ccc(Cl)cc2)CC1,IC50,[10],0.478 µM (active)
O=C1c2ccccc2C(=O)c2c1oc(C(F)(F)F)c2C(=O)c1ccccc1,EC50,[11],> 60 µM (not active)
same,EC50,[12],15.3 µM (active)
same,IC50,[13],4.72 µM (active)
same,EC50,[14],2.41 µM (active)
same,AC50,[15],> 380 µM (inconclusive)
same,EC50,[16],3.37 µM (active)
same,EC50,[17],2.11 µM (active)
same,EC50,[18],7.26 µM (active)
same,EC50,[19],1.76 µM (active)
same,IC50,[20],> 20 µM (inactive)
same,EC50,[21],6.73 µM (active)
CCC(C)N1CCN(C(=O)/C=C/c2ccc(Br)cc2)CC1 (centres undefined),IC50,[10],0.00223 µM (active)
CNCCC(Oc1ccccc1OC)c1ccccc1 (centres undefined) [NISOXETINE HYDROCHLORIDE],AC50,[3],> 30 µM (inactive)
COCC(=O)O[C@]1(CCN(C)CCCc2nc3ccccc3[nH]2)CCc2cc(F)ccc2[C@@H]1C(C)C [MIBEFRADIL DIHYDROCHLORIDE],IC50,[22],7.26 µM (inactive)
same,IC50,[8],8.24 µM (inactive)
same,IC50,[23],12.4 µM (inactive)
same,IC50,[24],3.08 µM (active)
same,IC50,[25],6.72 µM (inactive)
same,IC50,[26],10.5 µM (inactive)
same,IC50,[9],> 40 µM (inactive)
same,IC50,[27],5.33 µM (inactive)
same,IC50,[28],5.44 µM (inactive)
same,IC50,[29],4.54 µM (active)
